These results are taken from patent US12336981B2, “Compounds and compositions for the inhibition of NAMPT” (Valo Health, Inc., priority 2010, dated 2025).

One experiment has as its system U251 cells. In words: In-vitro cell proliferation assay (SRB), U251 cells. The format is cell-based. The following applies: Homo sapiens, U-251, 72 hours. As for the experimental part:
After overnight incubation at 37° C. and 5% CO2, the compound titrations were performed in a separate dilution plate by serially diluting the compounds in DMSO to make a 1000× stock. The compounds were then further diluted to 10× final concentration in culture media, whereupon 20 μL of each dilution was added to the plated cells with controls (e.g. DMSO and blank) to make a final volume of 5 200 μL. The final DMSO concentration in each well was 0.1%. The plates were then incubated for 72 hours at 37° C. in a 5% CO2 incubator. The number of viable cells was then assessed using sulforhodamine B (SRB) assay. Cells were fixed at 4° C. for 1 hour with the addition of 50 μL 30% trichloroacetic acid (TCA) to make a final concentration of 6% 10 TCA. The plates were washed four times with H2O and allowed to dry for at least 1 hour, whereupon 100 μL of a 4% SRB in 1% acetic acid solution was added to each well and incubated at room temperature for at least 30 minutes. The plates were then washed three times with 1% acetic acid, dried, and treated with 100 μL of 10 mM Tris-Base solution. The plates were then read in a microplate reader at an absorbance of 570 nm. 15 Background was generated on a separate plate with media only. Method for Determining % Inhibition First, the signals from the background plate are averaged, then the background was subtracted from the test plates.

Another experiment relates to A2780 cells. Kind of experiment: In-vitro cell proliferation assay (SRB), A2780 cells. To be noted: Homo sapiens, A2780, 72 h, A2780 cells, 72 hours, read-out: A2780 IC50. The format is cell-based. In outline:
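Cells were plated overnight at 37° C., 5% CO2, then exposed to serially diluted compounds (0.1% DMSO final) for 72 hours. Viable cells were measured by sulforhodamine B staining after TCA fixation, read at 570 nm; media-only background was subtracted before % inhibition was calculated.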

Another experiment addresses T1, NAMPT (Homo sapiens, UniProt P43490).
T1 construct: His tag; host or cells: E. coli
In words: Biochemical inhibition assay: NAMPT enzymatic reaction, NMN quantified by mass spectrometry. To be noted: read-out: Biochem IC50. The method in brief:
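Inhibition of E. coli-expressed His-tagged human NAMPT, measured as NMN formation by mass spectrometry after a 30 min room-temperature reaction containing 1 μM NAM, 100 μM PRPP and 2.5 mM ATP.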

The structures appear in SMILES notation. Counter-ions that a name gives are not always drawn. Like-named read-outs stand apart in the source and are kept apart here.

T1 sequence (P43490 whole entry): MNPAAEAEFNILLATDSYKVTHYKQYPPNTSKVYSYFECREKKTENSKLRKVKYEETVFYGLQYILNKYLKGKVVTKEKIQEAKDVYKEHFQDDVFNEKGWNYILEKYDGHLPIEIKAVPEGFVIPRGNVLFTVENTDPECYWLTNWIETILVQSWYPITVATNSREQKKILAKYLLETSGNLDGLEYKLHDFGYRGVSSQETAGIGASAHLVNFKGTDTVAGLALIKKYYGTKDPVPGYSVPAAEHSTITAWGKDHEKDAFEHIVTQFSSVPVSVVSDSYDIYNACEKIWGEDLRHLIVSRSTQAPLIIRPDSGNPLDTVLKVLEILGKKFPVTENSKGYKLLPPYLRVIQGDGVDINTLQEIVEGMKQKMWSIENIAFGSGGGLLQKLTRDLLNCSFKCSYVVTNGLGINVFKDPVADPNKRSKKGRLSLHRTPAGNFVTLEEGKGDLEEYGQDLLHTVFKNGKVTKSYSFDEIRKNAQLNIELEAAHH

For `O=C(NCc1ccc([S+]([O-])c2cc(F)cc(F)c2)cc1)c1ccc2nccn2c1` (stereo not shown) [N-({4-[(3,5-difluorobenzene)sulfinyl]phenyl}methyl)imidazo[1,2-a]pyridine-6-carboxamide], half-maximal inhibition in the experiment with U251 cells (IC50) required 6.6 nM.

In the experiment with U251 cells, `NC1CCN(S(=O)(=O)c2ccc(CNC(=O)c3cc4ccncc4o3)cc2)C1` (stereo not shown) [N-{[4-(3-aminopyrrolidine-1-sulfonyl)phenyl]methyl}furo[2,3-c]pyridine-2-carboxamide hydrochloride] returned a concentration for half-maximal inhibition (IC50) of 1850 nM.

For `NC1CCN(S(=O)(=O)c2ccc(CNC(=O)c3cc4ccncc4s3)cc2)C1` (stereo not shown) [N-{[4-(3-aminopyrrolidine-1-sulfonyl)phenyl]methyl}thieno[2,3-c]pyridine-2-carboxamide hydrochloride], the concentration for half-maximal inhibition (IC50) with U251 cells was determined as 310 nM.

For the molecule `O=C(NCc1ccc(S(=O)(=O)c2ccccc2)cc1)c1cc2ncccc2o1` [N-{[4-(benzenesulfonyl)phenyl]methyl}furo[3,2-b]pyridine-2-carboxamide], the IC50 in the experiment on U251 cells turned out to be 545 nM.

In turn, `O=C(NCc1ccc(S(=O)(=O)c2ccccc2)cc1)c1cn2ccnc2cn1` [N-{[4-(benzenesulfonyl)phenyl]methyl}imidazo[1,2-alpyrazinc-6-carboxamide] returned an IC50 with U251 cells of over 2000 nM.

With `O=C(NCc1ccc(S(=O)(=O)c2ccccc2)cc1)c1ccc2cncn2c1` [N-{[4-(benzenesulfonyl)phenyl]methyl}imidazo[1,5-alpyridine-6-carboxamide], the IC50 in the experiment on U251 cells is over 2000 nM.

Molecule `O=C(NCc1ccc(S(=O)(=O)c2ccccc2)cc1)c1cc2ncccc2s1` [N-{[4-(benzenesulfonyl)phenyl]methyl}thieno[3,2-b]pyridine-2-carboxamide] displayed a concentration for half-maximal inhibition (IC50) in the experiment with U251 cells of over 2000 nM.

With `O=C(NCc1ccc(S(=O)(=O)N2CCNCC2)cc1)c1cc2ccncc2s1` [N-{[4-(pipcrazine-1-sulfonyl)phenyl]methyl}thieno[2,3-c]pyridine-2-carboxamide], in the experiment on U251 cells, half-maximal inhibition (IC50) was put at 405 nM.

`O=C(NCc1ccc(S(=O)(=O)c2cccc3cccnc23)cc1)c1cnc2[nH]ncc2c1` [N-{[4-(quinoline-8-sulfonyl)phenyl]methyl}-1H-pyrazolo[3,4-b]pyridine-5-carboxamide]: the IC50 in the experiment with A2780 cells (SRB) is 23.6 nM; at NAMPT (NAMPT enzymatic assay) it was 45.5 nM.

Turning to `O=C(NCc1ccc(S(=O)(=O)c2cccc3cccnc23)cc1)c1cc2ccncc2o1` [N-{[4-(quinoline-8-sulfonyl)phenyl]methyl}furo[2,3-c]pyridine-2-carboxamide], the values for the IC50 in the experiment on A2780 cells (SRB) and at NAMPT (NAMPT enzymatic assay) were 6 nM and 7.6 nM, respectively.

Take `O=C(NCc1ccc(S(=O)(=O)c2cccc3cccnc23)cc1)c1ccc2nccn2c1` [N-{[4-(quinoline-8-sulfonyl)phenyl]methyl}imidazo[1,2-a]pyridine-6-carboxamide]: the IC50 with A2780 cells (SRB) stood at 5.5 nM; on NAMPT (NAMPT enzymatic assay) it was 9.8 nM.

Regarding `O=C(NCc1ccc(S(=O)(=O)c2cccc3cccnc23)cc1)c1cnc2nccn2c1` [N-{[4-(quinoline-8-sulfonyl)phenyl]methyl}imidazo[1,2-a]pyrimidine-6-carboxamide], the IC50 with A2780 cells (SRB) was 27.7 nM; on NAMPT (NAMPT enzymatic assay), 3 nM.

Turning to `O=C(NCc1ccc(S(=O)(=O)c2cccc3cccnc23)cc1)c1cc2ccncc2s1` [N-{[4-(quinoline-8-sulfonyl)phenyl]methyl}thieno[2,3-c]pyridine-2-carboxamide], the IC50 in the experiment with A2780 cells (SRB assay) amounted to 2.5 nM; at NAMPT (NAMPT enzymatic reaction), 6 nM.

In the case of `CC(C)CNC(=O)c1cccc(S(=O)(=O)c2ccc(CNC(=O)c3cc4ccncc4s3)cc2)c1` [N-{[4-({3-[(2-methylpropyl)carbamoyl]benzene}sulfonyl)phenyl]methyl}thieno[2,3-c]pyridine-2-carboxamide], the IC50 with A2780 cells (SRB) turned out to be 14.5 nM; on NAMPT (NAMPT enzymatic assay), 5.2 nM.

As for `CC(C)NC(=O)c1cc(S(=O)(=O)c2ccc(CNC(=O)c3cnc4[nH]ncc4c3)cc2)ccc1F` [N-{[4-({4-fluoro-3-[(propan-2-yl)carbamoyl]benzene}sulfonyl)phenyl]methyl}-1H-pyrazolo[3,4-b]pyridine-5-carboxamide], the figures for the IC50 in the experiment on A2780 cells (SRB) and on NAMPT (NAMPT enzymatic assay) were 63.1 nM and 85.2 nM, respectively.
